Values joined by “and” are separate entries in the source; they are usually repeats but may differ in a detail not shown here. Equal entries are not always repeated.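 48-hour exposure; five concentrations; linearly interpolated endpoints. Here, GI50 denotes the concentration required for 50% inhibition of growth. The concentration for full growth arrest is given as TGI.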
Tests used:
Assay in all cases: DTP human tumour cell line panel, 48 h
BT-549 breast = tested on: BT-549 breast
CAKI-1 renal = tested on: CAKI-1 renal
CCRF-CEM leukemia = tested on: CCRF-CEM leukemia
HCT-116 colon = tested on: HCT-116 colon
HOP-62 NSCLC = tested on: HOP-62 NSCLC
NCI-H23 lung = tested on: NCI-H23 lung
RXF 393 renal = tested on: RXF 393 renal
SF-539 CNS = tested on: SF-539 CNS
SK-MEL-28 melanoma = tested on: SK-MEL-28 melanoma
SNB-19 CNS = tested on: SNB-19 CNS

Structure (SMILES)	GI50 (BT-549 breast)	TGI (BT-549 breast)	GI50 (CAKI-1 renal)	TGI (CAKI-1 renal)	GI50 (CCRF-CEM leukemia)	TGI (CCRF-CEM leukemia)	GI50 (HCT-116 colon)	TGI (HCT-116 colon)	GI50 (HOP-62 NSCLC)	TGI (HOP-62 NSCLC)	GI50 (NCI-H23 lung)	TGI (NCI-H23 lung)	GI50 (RXF 393 renal)	TGI (RXF 393 renal)	GI50 (SF-539 CNS)	TGI (SF-539 CNS)	GI50 (SK-MEL-28 melanoma)	TGI (SK-MEL-28 melanoma)	GI50 (SNB-19 CNS)	TGI (SNB-19 CNS)
CC(=O)OCC1OC(S[As](C)C)C(OC(C)=O)C1OC(C)=O (stereo not given)	0.645 µM	2.87 µM	0.0791 µM	0.453 µM	0.19 µM	1.34 µM	0.226 µM	1.38 µM	3.35 µM	15.2 µM	0.551 µM	3.63 µM	0.455 µM	2.31 µM	0.226 µM	0.907 µM	0.446 µM	2.73 µM	9.06 µM	29.5 µM
CC(C)(O)[C@H]1[C@@H]2OC(=O)[C@H]1[C@]1(O)C[C@H]3OC34C(=O)O[C@H]2[C@@]41C (stereo not given in full) (tested in a mixture with another compound)		> 100 µM		> 100 µM		> 100 µM		> 100 µM		> 100 µM		> 100 µM		> 100 µM		> 100 µM		> 100 µM		> 100 µM
COc1ccc(F)cc1C(=O)c1cnc(NC2CCN(S(C)(=O)=O)CC2)nc1N	4.11 µM	14.3 µM	2.88 µM	> 17.6 µM	2.63 µM	> 21.3 µM	1.21 µM	> 25 µM	5.42 µM	> 20.6 µM	2.97 µM	16.7 µM	2.75 µM	6.58 µM	3.29 µM	7.77 µM	3.38 µM	> 16.4 µM	1.8 µM	> 25 µM
Cc1ccc(C(=O)NC2CCCCC2)cc1-c1ccc(C(=O)NCC2CC2)cc1	> 22.6 µM	> 25 µM	24.9 µM	> 25 µM	> 25 µM	> 25 µM	20.9 µM	> 25 µM	> 25 µM	> 25 µM	> 25 µM	> 25 µM	> 25 µM	> 25 µM	> 25 µM	> 25 µM	> 25 µM	> 25 µM	> 25 µM	> 25 µM
O=C1C=CC2(C=C1)CCN=c1c(O)c3c(c(O)c12)=NC=N3	18.1 µM and > 100 µM	32.4 µM and > 100 µM		27.5 µM and > 100 µM		> 100 µM		22.5 µM and > 100 µM	16.3 µM and > 100 µM	30.3 µM and > 100 µM		19.5 µM and > 100 µM	16.2 µM and > 100 µM	30.1 µM and > 100 µM	13.8 µM and > 100 µM	26.9 µM and > 100 µM	15.6 µM and > 100 µM	29.4 µM and > 100 µM		27.1 µM
O=C(O)CC1(C(=O)O)CCCCC1		> 100 µM		> 100 µM		> 100 µM		> 100 µM		> 100 µM		> 100 µM		> 100 µM		> 100 µM		> 100 µM		> 100 µM
CO[C@H](C(=O)N[C@@H](CCCCNC(=O)OCc1ccccc1)C(=O)OC(C)(C)C)[C@@H]1Cc2cc3cc(OC4CC(OC5CC(O)C(O)C(C)O5)C(O)C(C)O4)c(C)c(O)c3c(O)c2C(=O)[C@H]1OC1CC(OC2CC(OC3CC(C)(O)C(O)C(C)O3)C(O)C(C)O2)C(O)C(C)O1 (stereo not given in full)	0.518 µM	1.81 µM	1.04 µM	3.42 µM	0.404 µM	5.07 µM	0.397 µM	1.63 µM	0.464 µM	2.73 µM	0.667 µM	2.37 µM	0.705 µM	2.02 µM	0.559 µM	3.08 µM	0.468 µM	1.87 µM	0.52 µM	2.6 µM

Source: PubChem BioAssay (NCI)
